Source: article PMC12246422 (Nature Communications, 2025)

How the values were obtained:
A549-ACE2 cells [1] = format: cell-based; settings: 5 μM, 24 hours
[2] = cited from earlier work
SARS-CoV-2 = experiment: Time-of-addition experiment in Calu-3 cells, plaque assay; format: cell-based
[3] = tested on: SARS-CoV-2 subgenomic replicon; format: cell-based; settings: Vero E6-TMPRSS2 cells, 24 h
A549-ACE2 cells [4] = format: cell-based

Cc1cccc(/C=N/Nc2cc(N3CCOCC3)nc(OCCc3ccccn3)n2)c1 [Apilimod]
morphology of A549-ACE2 cells expressing 2xFYVE PI3P marker (A549-ACE2 cells [1]): cytosolic vacuolation and swelling of membrane structures | pharmacokinetic profile [2]: suboptimal pharmacokinetic profile | time-of-addition profile (SARS-CoV-2): suppressed SARS-CoV-2 replication when added during the first two hpi, but not at later time points | viral RNA replication, subgenomic replicon [3]: dose-dependently increased viral RNA replication

CCN(CC)CCCC(C)Nc1ccnc2cc(Cl)ccc12 (centres unmarked) [chloroquine]
autolysosome number and autolysosome-to-autophagosome ratio relative to DMSO (A549-ACE2 cells [4]): moderately reduced
